The values that follow are results of earlier work, collected in US20060024806A1, “Mycolactone locus: an assembly line for producing novel polyketides, therapeutic and prophylactic uses” (priority 2003, published 2006).

The test system of this data set is guinea pig model of the disease. Conditions: purified mycolactone injected subcutaneously.

For `CC(=C\C=C\C(C)=C\[C@H](O)[C@@H](O)C[C@H](C)O)/C=C(C)/C=C/C(=O)O[C@H]1CCCC(=O)O[C@@H]([C@@H](C)C/C(C)=C/[C@@H](C)[C@H](O)C[C@@H](C)O)C/C=C(\C)C[C@@H]1C` [mycolactone], the pathology after injection entry is on record as “reproduces the natural pathology”.
